Laboratory results reported in publication PMC3973950, “Synthesis of 5-arylidine amino-1,3,4-thiadiazol-2-[(N-substituted benzyol)]sulphonamides endowed with potent antioxidants and anticancer activity induces growth inhibition in HEK293, BT474 and NCI-H226 cells” (Medicinal Chemistry Research, 2013).

Tests used:
[1] = Total antioxidant activity (ABTS radical cation scavenging); assay type: biochemical; details: Conc. ± SD; three independent experiments in duplicate; standard trolox; read-out: IC50 inhibitory concentration, ABTS^+ radical
Protocol: The ability of the test sample to scavenge 2,2′-azinobis-(3-ethylbenzothiazoline-6-sulphonic acid) (ABTS^·+) radical cation was compared with 6-hydroxy-2,5,7,8-tetramethylchroman-2-carboxylic acid (trolox) standard (Chang et al., [2007]; Erel, [2004]; Re et al., [1999]). The ABTS^·+ radical cation was pregenerated by mixing ABTS stock solution (7 mM) with potassium persulphate (2.45 mM) (final concentration) and incubating for 12–16 h in the dark at room temperature until the reaction was complete and the absorbance was stable. The absorbance of the ABTS^·+ solution was equilibrated to 0.70 (±0.02) by diluting with water at room temperature, then 1 mL of solution was mixed with 10 μL of the test sample (0.05–10 mg/mL), and the absorbance was measured at 734 nm after 6 min. All experiments were repeated three times. The percentage inhibition of absorbance was calculated and plotted as a function of the concentration of standard and sample to determine the trolox equivalent antioxidant concentration (TEAC). To calculate the TEAC, the gradient of the plot for the sample was divided by the gradient of the plot for trolox. The IC50 inhibitory concentration (nM/mL) values of tested compounds are depicted in Table 1. The ABTS^·+ radical scavenging activity of the samples was expressed as S%=[(Acontrol-Asample)/Acontrol]×100 where A control is the absorbance of the blank control (ABTS^·+ solution without test sample), and A sample is the absorbance of the test sample.

[2] = DPPH radical scavenging activity; assay type: biochemical; details: Conc. ± SD; standard ascorbic acid; read-out: IC50 inhibitory concentration, DPPH radical
Protocol: Compounds of SC series were evaluated for their in vitro free radical scavenging activities by 2,2-diphenyl-1-picrylhydrazyl (DPPH) assay method (Blois, [1958]; Shishoo et al., [1999]; Chhajed et al., [2007]). To determine the free radical scavenging activity, a method based on the reduction of a methanolic solution of the coloured DPPH radical was used. To a set of test tubes containing methanol (3 mL), DPPH reagent (2 mg/mL) (50 μL) was added. The initial absorbance was measured. To these test tubes, methanolic solution of different test solutions (1 mg/mL) were added (10–50 μL). Ascorbic acid (0.5 mg/mL) was also added in the concentration of 10, 20, 30, 40, 50 and 100 μL. After 20 min, absorbance was recorded at 516 nm. The experiment was performed in triplicate. The percentage reduction in absorbance was calculated from the initial and final absorbance of each solution (Dhar and Taploo, [1982]).

[3] = Superoxide anion radical scavenging (NBT/NADH/PMS); assay type: biochemical; details: Conc. ± SD; standard catechin; read-out: IC50 inhibitory concentration, Superoxide anion
Protocol: Measurement of superoxide anion scavenging activity of the synthesized compound was taken based on the method described by Nishimiki et al. ([1972]) and slightly modified. […] The reaction mixture was incubated at 25 °C for 5 min, and the absorbance at 560 nm was measured against blank samples. Catechin was used as reference compound. All the experiments were performed in triplicate, and the results were averaged. The percentage of inhibition was determined by comparing the results of control and test samples. The IC50 (nM/mL) value are depicted in Table 1.

[4] = Nitric oxide radical scavenging (sodium nitroprusside, Griess reaction); assay type: biochemical; details: Conc. ± SD; standard curcumin; read-out: IC50 inhibitory concentration, Nitric oxide radical
Protocol: Nitric oxide generated from sodium nitroprusside in aqueous solution at physiological pH interacts with oxygen to produce nitrite ions, which were measured by the Griess reaction (Marcocci et al., [1994]; Green et al., [1982]). Scavenger of nitric oxide competes with oxygen leading to reduced production of nitric oxide (Mondal et al., [2006]). The reaction mixture (3 mL) containing sodium nitroprusside (10 mM) in phosphate-buffered saline (PBS) and the compounds in different concentrations (10, 20, 30, 40, 50 and 100 μg) were incubated at 25 °C for 150 min. At every 30-min interval, the incubated sample (0.5 mL) was removed and Griess reagent (1 % sulphanilamide, 0.1 % naphthylethylene diamine dihydrochloride in 2 % H3PO4) (0.5 mL) was added. The absorbance of the chromophore formed was measured at 546 nm. All the analyses were performed in triplicate, and the results were averaged. The percentage inhibition of nitric oxide generated was measured by comparing the absorbance values of control and test.

[5] = In vitro cytotoxicity by MTT assay, NCI-H226; assay type: cell-based; details: human, NCI-H226 lung cancer cells, 0.015 μM, read-out: % Cytotoxicity (100 − % cell survival) of NCI-H226 cell line
Method in brief: (§1)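 Monolayers seeded at […] (about 10,000 per well) were treated after 24 h with the synthesized compounds and incubated three days. Viability was taken from MTT reduction, with formazan measured at 490 nm.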

[6] = test system: NCI-H226 (lung cancer cell line); assay: In vitro cytotoxicity by MTT assay, NCI-H226; assay type: cell-based; details: Homo sapiens, 72 h, read-out: % Cytotoxicity (100 − % cell survival) of NCI-H226 cell line; for cytotoxicity at 0.005 µM: NCI-H226, 0.005 μM; for cytotoxicity at 0.045 µM: NCI-H226, 0.045 μM; for cytotoxicity at 0.13 µM: NCI-H226, 0.13 μM; for cytotoxicity at 0.41 µM: NCI-H226, 0.41 μM; for cytotoxicity at 1.23 µM: NCI-H226, 1.23 μM; for cytotoxicity at 3.7 µM: NCI-H226, 3.7 μM; for cytotoxicity at 11.11 µM: NCI-H226, 11.11 μM; for cytotoxicity at 33.33 µM: NCI-H226, 33.33 μM; for cytotoxicity at 100 µM: NCI-H226, 100 μM
Method in brief: as §1

| SMILES | IC50 [1] [µM] | IC50 [2] [µM] | IC50 [3] [µM] | IC50 [4] [µM] | cytotoxicity at 72 h, 0.015 µM [5] [%] | cytotoxicity at 0.005 µM [6] [%] | cytotoxicity at 0.045 µM [6] [%] | cytotoxicity at 0.13 µM [6] [%] | cytotoxicity at 0.41 µM [6] [%] | cytotoxicity at 1.23 µM [6] [%] | cytotoxicity at 3.7 µM [6] [%] | cytotoxicity at 11.11 µM [6] [%] | cytotoxicity at 33.33 µM [6] [%] | cytotoxicity at 100 µM [6] [%] |
| --- | --- | --- | --- | --- | --- | --- | --- | --- | --- | --- | --- | --- | --- | --- |
| O=C(NS(=O)(=O)c1nnc(N=Cc2ccccc2)s1)c1ccccc1 [Compound 9a, N-{[5-(Benzylidenamino)-1,3,4-thiadiazol-2-yl]sulphonyl} benzamide] | 73.3 ± 7.05 | 134 ± 12.9 | 152 ± 14.4 | 104 ± 7.5 | 34.8 | 33.3 | 35.3 | 36.1 | 37 | 37.9 | 38.1 | 39.1 | 41.1 | 42.4 |
| O=C(NS(=O)(=O)c1nnc(N=Cc2ccc(Cl)cc2)s1)c1ccccc1 [Compound 9b, N-({5-[(4-Chlorobenzylidene)amino]-1,3,4-thiadiazol-2-yl}sulfonyl)benzamide] | 93.3 ± 10.7 | 88.2 ± 11.1 | 76.3 ± 11.8 | 52.6 ± 16.7 | 29.5 | 27.8 | 35.4 | 35.7 | 36.1 | 36.5 | 36.6 | 37 | 37.7 | 38 |
| COc1ccccc1C=Nc1nnc(S(=O)(=O)NC(=O)c2ccccc2)s1 [Compound 9c, N-({5-[(2-Methoxybenzylidene)amino]-1,3,4-thiadiazol-2-yl}sulfonyl)benzamide] | 196 ± 16.6 | 41.3 ± 4.23 | 128 ± 21.7 | 81.9 ± 10.4 | 33.2 | 31.5 | 34.1 | 35.1 | 35.9 | 36.1 | 37.7 | 38.2 | 40.3 | 43.5 |
| COc1ccc(C=Nc2nnc(S(=O)(=O)NC(=O)c3ccccc3)s2)cc1 [Compound 9d, N-({5-[(4-Methoxybenzylidene)amino]-1,3,4-thiadiazol-2-yl}sulfonyl)benzamide] | 55.6 ± 6.98 | 63.6 ± 8.35 | 74.5 ± 8.3 | 53 ± 6.74 | 36.3 | 35.6 | 37.5 | 38.3 | 40.6 | 41.2 | 43.1 | 47.8 | 48.2 | 53 |
| O=C(NS(=O)(=O)c1nnc(N=Cc2ccc(O)cc2)s1)c1ccccc1 [Compound 9e, N-({5-[(4-Hydroxybenzylidene)amino]-1,3,4-thiadiazol-2-yl}sulfonyl)benzamide] | 47.9 ± 9.9 | 107 ± 18.1 | 136 ± 22.5 | 155 ± 17.6 | 40.3 | 39.1 | 41.9 | 42.5 | 43.4 | 45.8 | 47.6 | 48.2 | 49.3 | 51.4 |
| O=C(NS(=O)(=O)c1nnc(N=Cc2ccccc2O)s1)c1ccccc1 [Compound 9f, N-({5-[(2-Hydroxybenzylidene)amino]-1,3,4-thiadiazol-2-yl}sulfonyl)benzamide] | 207 ± 17.4 | 80.6 ± 11.4 | 36.7 ± 14.4 | 38 ± 11.8 | 31.2 | 30.3 | 32.4 | 33.4 | 35 | 35.7 | 36.9 | 37.1 | 38.7 | 40.4 |
| COc1cc(C=Nc2nnc(S(=O)(=O)NC(=O)c3ccccc3)s2)ccc1O [Compound 9g, N-({5-[(4-Hydroxy-3-methoxybenzylidene)amino]-1,3,4-thiadiazol-2-yl}sulfonyl)benzamide] |  |  |  |  | 33.2 | 32.7 | 34.1 | 35.1 | 36.3 | 37.5 | 38.6 | 39.2 | 39.8 | 42.5 |
| CN(C)c1ccc(C=Nc2nnc(S(=O)(=O)NC(=O)c3ccccc3)s2)cc1 [Compound 9h, N-[(5-{[4-(Dimethylamino)benzylidene]amino}-1,3,4-thiadiazol-2-yl)sulfonyl]benzamide] |  |  |  |  | 35 | 32.9 | 35.4 | 36.3 | 36.4 | 37.2 | 37.5 | 37.9 | 39.2 | 40 |
